{"source": "patent EP0370499A2", "about": "“Use of benzomorphanes in cytoprotection” (BOEHRINGER INGELHEIM KG, priority 1988, dated 1990)", "tested_on": "Hippocampusschnitt", "test": "Hippocampal slice: epileptic discharges in magnesium-free medium (stimulation of Schaffer collaterals, extracellular recording at CA1 pyramidal cells)", "type": "cell-based", "details": "addition of 100 mmol, Abb. 1c", "description": "Als Testsystem für den Nachweis der zytoprotektiven Eigenschaften der Benzomorphanderivate dient der Hippocampusschnitt. Über Mikroelektroden werden die Schäfferkollaterale des sich in einer Perfusionskammer befindenden Hippocampusschnittes stimuliert und die auftretenden Summenpotentiale extrazellulär an den Pyramidenzellen der CAI-Region abgeleitet [H.L. Haas, B. Schaerer und M. Vosmansky, J. Neuroscience Meth. 1 (1979) 323].\nEine typische Stimulation in einem magnesiumhaltigem Medium ist in Abb. 1a dargestellt. - Abb. 1b zeigt multiple epileptische Entladungen in einem magnesiumfreien Medium. Diese Entladungen werden - wie Abb. 1c belegt - beispielsweise durch Zugabe von […] (-)-(1R,5R,9R)-N-(2-Furylmethyl)-5,9-dimethyl-2′- hydroxy-6,7-benzomorphan gehemmt."}
{"smiles": "C[C@H]1[C@H]2Cc3ccc(O)cc3[C@]1(C)CCN2Cc1ccco1", "note": "[(-)-(1R,5R,9R)-N-(2-Furylmethyl)-5,9-dimethyl-2′-hydroxy-6,7-benzomorphan]", "values": [{"measurement": "multiple epileptische Entladungen", "result": "gehemmt"}]}
